According to patent US20260022142A1, “MACROCYCLIC IMMUNOMODULATORS” (Bristol-Myers Squibb Company, priority 2022, published 2026):
pIC50: −log10 of the molar value. Bridge positions count the residues as written; N and C are the ends. Square brackets hold non-standard residues; d marks the D form. Peptide text beside a SMILES is read from it. * marks the point of attachment. Bip = N[C@@H](Cc1ccc(-c2ccccc2)cc1)C(=O)O; Phe(3-Me) = Cc1cccc(C[C@H](N)C(=O)O)c1; Cha = N[C@@H](CC1CCCCC1)C(=O)O; Cit = NC(=O)NCCC[C@H](N)C(=O)O; Carboxymethyl = O=C(O)C*; Orn = NCCC[C@H](N)C(=O)O; Aun = NCCCCCCCCCCC(=O)O; Dab = NCC[C@H](N)C(=O)O; Dap = NC[C@H](N)C(=O)O; AEEA = NCCOCCOCC(=O)O

Molecular target: T1, PD-1/PD-L1 interaction (PE-labeled human PD-L1-Ig binding to Jurkat cell line over-expressing human PD-1) (Homo sapiens, UniProt Q15116)
T1 construct: expressed in transfected cells; host or cells: Jurkat
Test: Jurkat-PD-1 Cell Binding High-Content Screening Assay (CBA)
Type: cell-based
Conditions: Jurkat cell line over-expressing human PD-1; PE-labeled PD-L1-Ig 20 nM final; read-out: Jurkat hPD1-PDL1 IC50
Summary of the method: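 Jurkat cells stably over-expressing human PD-1 were seeded in DMEM with 10% fetal calf serum and pre-incubated with compound for 2 h at 37° C. PE-labeled human PD-L1-Ig was then added at 20 nM final for 1 hour, after which cells were fixed with paraformaldehyde, Hoechst-stained and imaged by high-content microscopy.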

T1 sequence (Q15116 25-288): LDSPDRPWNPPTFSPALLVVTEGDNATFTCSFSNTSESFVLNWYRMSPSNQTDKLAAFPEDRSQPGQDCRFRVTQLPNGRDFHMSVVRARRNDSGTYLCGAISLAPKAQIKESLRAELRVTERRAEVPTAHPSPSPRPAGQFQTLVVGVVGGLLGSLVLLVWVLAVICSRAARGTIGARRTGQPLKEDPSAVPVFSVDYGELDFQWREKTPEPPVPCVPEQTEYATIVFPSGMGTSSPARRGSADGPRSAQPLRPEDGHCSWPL

SMILES | pIC50
CC[C@H](C)[C@@H]1NC(=O)[C@H](Cc2ccc(-c3ccccc3)cc2)NC(=O)[C@H](C(C)C)NC(=O)[C@H](Cc2cccc(C)c2)NC(=O)[C@H](CC(=O)O)NC(=O)[C@H](Cc2ccc(OCC(=O)O)cc2)NC(=O)[C@H](CN)NC(=O)CSC[C@@H](C(=O)N[C@@H](CCCCN)C(=O)NCCOCCOCC(=O)NCCCCCCCCCCC(=O)O)NC(=O)[C@H](CN)NC(=O)[C@H](C(C)C)NC(=O)[C@H](CC2CCCCC2)NC(=O)[C@H](CCN)NC(=O)[C@@H](CC(C)C)NC(=O)[C@H](CCCN)NC1=O [Compound 2650] ({CH2CO}-[Dap]Y(Carboxymethyl)D[Phe(3-Me)]V[Bip]I[Orn][dL][Dab][Cha]V[Dap]CK[AEEA][Aun]-OH; thioether N-14) | 7.94
Cc1cccc(C[C@@H]2NC(=O)[C@H](CC(=O)O)NC(=O)[C@H](Cc3ccc(OCC(=O)O)cc3)NC(=O)[C@H](CN)NC(=O)CSC[C@@H](C(=O)N[C@@H](CCCCN)C(=O)NCCOCCOCC(=O)NCCCCCCCCCCC(=O)O)NC(=O)[C@H](CCCN)NC(=O)[C@H](C(C)C)NC(=O)[C@H](CC3CCCCC3)NC(=O)[C@H](CCN)NC(=O)[C@@H](CC(C)C)NC(=O)[C@H](CCCN)NC(=O)[C@H](CCCNC(N)=O)NC(=O)[C@H](Cc3ccc(-c4ccccc4)cc3)NC(=O)[C@H](C(C)C)NC2=O)c1 [Compound 2651] ({CH2CO}-[Dap]Y(Carboxymethyl)D[Phe(3-Me)]V[Bip][Cit][Orn][dL][Dab][Cha]V[Orn]CK[AEEA][Aun]-OH; thioether N-14) | 8.01
CC[C@H](C)[C@@H]1NC(=O)[C@H](Cc2ccc(-c3ccccc3)cc2)NC(=O)[C@H](C(C)C)NC(=O)[C@H](Cc2cccc(C)c2)NC(=O)[C@H](CC(=O)O)NC(=O)[C@H](Cc2ccc(OCC(=O)O)cc2)NC(=O)[C@H](CN)NC(=O)CSC[C@@H](C(=O)N[C@@H](CCCCN)C(=O)NCCOCCOCC(=O)NCCCCCCCCCCC(=O)O)NC(=O)[C@H](CCCN)NC(=O)[C@H](C(C)C)NC(=O)[C@H](CC2CCCCC2)NC(=O)[C@H](CCN)NC(=O)[C@@H](CC(C)C)NC(=O)[C@H](CCCN)NC1=O [Compound 2652] ({CH2CO}-[Dap]Y(Carboxymethyl)D[Phe(3-Me)]V[Bip]I[Orn][dL][Dab][Cha]V[Orn]CK[AEEA][Aun]-OH; thioether N-14) | 8.21
Cc1cccc(C[C@@H]2NC(=O)[C@H](CC(=O)O)NC(=O)[C@H](Cc3ccc(OCC(=O)O)cc3)NC(=O)[C@H](CN)NC(=O)CSC[C@@H](C(=O)N[C@@H](CCCCN)C(=O)NCCOCCOCC(=O)NCCCCCCCCCCC(=O)O)NC(=O)[C@H](CCCNC(=N)N)NC(=O)[C@H](C(C)C)NC(=O)[C@H](CC3CCCCC3)NC(=O)[C@H](CCN)NC(=O)[C@@H](CC(C)C)NC(=O)[C@H](CCCN)NC(=O)[C@H](CCCNC(N)=O)NC(=O)[C@H](Cc3ccc(-c4ccccc4)cc3)NC(=O)[C@H](C(C)C)NC2=O)c1 [Compound 2653] ({CH2CO}-[Dap]Y(Carboxymethyl)D[Phe(3-Me)]V[Bip][Cit][Orn][dL][Dab][Cha]VRCK[AEEA][Aun]-OH; thioether N-14) | 7.95
CC[C@H](C)[C@@H]1NC(=O)[C@H](Cc2ccc(-c3ccccc3)cc2)NC(=O)[C@H](C(C)C)NC(=O)[C@H](Cc2cccc(C)c2)NC(=O)[C@H](CC(=O)O)NC(=O)[C@H](Cc2ccc(OCC(=O)O)cc2)NC(=O)[C@H](CN)NC(=O)CSC[C@@H](C(=O)N[C@@H](CCCCN)C(=O)NCCOCCOCC(=O)NCCCCCCCCCCC(=O)O)NC(=O)[C@H](CCCNC(=N)N)NC(=O)[C@H](C(C)C)NC(=O)[C@H](CC2CCCCC2)NC(=O)[C@H](CCN)NC(=O)[C@@H](CC(C)C)NC(=O)[C@H](CCCN)NC1=O [Compound 2654] ({CH2CO}-[Dap]Y(Carboxymethyl)D[Phe(3-Me)]V[Bip]I[Orn][dL][Dab][Cha]VRCK[AEEA][Aun]-OH; thioether N-14) | 8.28
CC(C)C[C@H]1NC(=O)[C@H](CCCN)NC(=O)[C@H](CCCNC(N)=O)NC(=O)[C@H](Cc2ccc(-c3ccccc3)cc2)NC(=O)[C@H](C(C)C)NC(=O)[C@H](Cc2c[nH]c3ccccc23)NC(=O)[C@H](CC(=O)O)NC(=O)[C@H](Cc2ccc(OCC(=O)O)cc2)NC(=O)[C@H](Cc2ccc(OCC(=O)O)cc2)NC(=O)CSC[C@@H](C(=O)NCCOCCOCC(=O)N[C@@H](CCN)C(=O)NCCCCCCCCCCC(=O)O)NC(=O)[C@H](CCCNC(=N)N)NC(=O)[C@H](C(C)C)NC(=O)[C@H](CC2CCCCC2)NC(=O)[C@H](CCN)NC1=O [Compound 2655] ({CH2CO}-Y(Carboxymethyl)Y(Carboxymethyl)DWV[Bip][Cit][Orn][dL][Dab][Cha]VRC[AEEA][Dab][Aun]-OH; thioether N-14) | 8.03
CC[C@H](C)[C@@H]1NC(=O)[C@H](Cc2ccc(-c3ccccc3)cc2)NC(=O)[C@H](C(C)C)NC(=O)[C@H](Cc2c[nH]c3ccccc23)NC(=O)[C@H](CC(=O)O)NC(=O)[C@H](Cc2ccc(OCC(=O)O)cc2)NC(=O)[C@H](Cc2ccc(OCC(=O)O)cc2)NC(=O)CSC[C@@H](C(=O)NCCOCCOCC(=O)N[C@@H](CCN)C(=O)NCCCCCCCCCCC(=O)O)NC(=O)[C@H](CCCNC(=N)N)NC(=O)[C@H](C(C)C)NC(=O)[C@H](CC2CCCCC2)NC(=O)[C@H](CCN)NC(=O)[C@@H](CC(C)C)NC(=O)[C@H](CCCN)NC1=O [Compound 2656] ({CH2CO}-Y(Carboxymethyl)Y(Carboxymethyl)DWV[Bip]I[Orn][dL][Dab][Cha]VRC[AEEA][Dab][Aun]-OH; thioether N-14) | 8.09
CC(C)C[C@H]1NC(=O)[C@H](CCCN)NC(=O)[C@H](CCC(=O)O)NC(=O)[C@H](Cc2ccc(-c3ccccc3)cc2)NC(=O)[C@H](C(C)C)NC(=O)[C@H](Cc2c[nH]c3ccccc23)NC(=O)[C@H](CC(=O)O)NC(=O)[C@H](Cc2ccc(OCC(=O)O)cc2)NC(=O)[C@H](CN)NC(=O)CSC[C@@H](C(=O)NCCOCCOCC(=O)N[C@@H](CCN)C(=O)NCCCCCCCCCCC(=O)O)NC(=O)[C@H](CCCCN)NC(=O)[C@H](C(C)C)NC(=O)[C@H](CC2CCCCC2)NC(=O)[C@H](CCN)NC1=O [Compound 2657] ({CH2CO}-[Dap]Y(Carboxymethyl)DWV[Bip]E[Orn][dL][Dab][Cha]VKC[AEEA][Dab][Aun]-OH; thioether N-14) | 7.84
Cc1cccc(C[C@@H]2NC(=O)[C@H](CC(=O)O)NC(=O)[C@H](Cc3ccc(OCC(=O)O)cc3)NC(=O)[C@H](CN)NC(=O)CSC[C@@H](C(=O)NCCOCCOCC(=O)N[C@@H](CCN)C(=O)NCCCCCCCCCCC(=O)O)NC(=O)[C@H](CN)NC(=O)[C@H](C(C)C)NC(=O)[C@H](CC3CCCCC3)NC(=O)[C@H](CCN)NC(=O)[C@@H](CC(C)C)NC(=O)[C@H](CCCN)NC(=O)[C@H](CCC(=O)O)NC(=O)[C@H](Cc3ccc(-c4ccccc4)cc3)NC(=O)[C@H](C(C)C)NC2=O)c1 [Compound 2658] ({CH2CO}-[Dap]Y(Carboxymethyl)D[Phe(3-Me)]V[Bip]E[Orn][dL][Dab][Cha]V[Dap]C[AEEA][Dab][Aun]-OH; thioether N-14) | 7.74
Cc1cccc(C[C@@H]2NC(=O)[C@H](CC(=O)O)NC(=O)[C@H](Cc3ccc(OCC(=O)O)cc3)NC(=O)[C@H](CN)NC(=O)CSC[C@@H](C(=O)NCCOCCOCC(=O)N[C@@H](CCN)C(=O)NCCCCCCCCCCC(=O)O)NC(=O)[C@H](CCCN)NC(=O)[C@H](C(C)C)NC(=O)[C@H](CC3CCCCC3)NC(=O)[C@H](CCN)NC(=O)[C@@H](CC(C)C)NC(=O)[C@H](CCCN)NC(=O)[C@H](CCC(=O)O)NC(=O)[C@H](Cc3ccc(-c4ccccc4)cc3)NC(=O)[C@H](C(C)C)NC2=O)c1 [Compound 2659] ({CH2CO}-[Dap]Y(Carboxymethyl)D[Phe(3-Me)]V[Bip]E[Orn][dL][Dab][Cha]V[Orn]C[AEEA][Dab][Aun]-OH; thioether N-14) | 7.94
